Results taken from paper PMC6544242, “Development and validation of a multiplex UHPLC-MS/MS method for the determination of the investigational antibiotic against multi-resistant tuberculosis macozinone (PBTZ169) and five active metabolites in human plasma” (PLoS ONE, 2019).
Like-named read-outs stand apart in the source and are kept apart here.

Tests used:
[1] = Phase Ia clinical pharmacokinetic trial, plasma levels in healthy volunteers; details: human
Protocol: The phase 1a clinical study assessing the safety and pharmacokinetics of PBTZ169 in healthy volunteers (NCT03423030), was performed at the Service of Clinical Pharmacology of the Lausanne University Hospital and was approved on 06.09.2017 (2017–01241) by the Ethics Committee of the Canton of Vaud (CER-VD) and on 17.11.2017 (2017DR1171) by Swissmedic. All volunteers gave their written informed consent.
The concentration measured in this plasma sample is 464 ng/mL, 147 ng/mL, 13 ng/mL, 12 ng/mL and 2 ng/mL for PBTZ169, Met 3-OH, Met 3-oxo, Met amino and Met 1-OH, respectively. […] Of note, measured plasma levels were multiplied by the factor 1.1 accounting for the blood 10:1 dilution due to citrate solution.

[2] = processed extract sample, 24h
[3] = human, 6 h
[4] = system: Mycobacterium tuberculosis; details: not measured in this paper, cited from earlier work
[5] = human
[6] = Long-term stability in plasma; assay type: in vitro ADME, human; details: -20°C and -80°C
Protocol: Long-term stability in plasma. Stability in citrated plasma stored at -20°C and -80°C in suitable tubes for long-term storage (1, 3, 6 and 12 months) was evaluated at 1, 10, 100 and 1000 ng/mL. Deviations of the mean concentrations (n = 3) of samples measured at each time points from the nominal concentrations were calculated.

[7] = assay type: physicochemical; details: DMSO:MeOH (1:1 v/v), -20°C
Protocol: Each compound was independently weighed and the corresponding powder dissolved in the required volume of DMSO to give a 1 mg/mL stock solution of the compound that was sonicated for 5 minutes. The stock solution used for PBTZ169 was corrected for salt form of the analyte by applying the weighing factor (0.926). Due to the high purity of the PBTZ169 and the five metabolites, no additional correcting factors were applied for preparing compounds stock solutions. Stock solutions were prepared in 5 mL PP tubes and stored at -20°C. The stability of these solutions was verified over a period of 6 months (mean bias < 8%) and of 9 months (mean bias < 9%)
PBTZ169 and metabolites mixture solutions. Two distinct working solutions (WS) including PBTZ169 together with its five active metabolites were prepared: one for calibration standards and one for validation standards/quality control (QC) samples. Working solutions including all the analytes at 100 μg/mL were obtained by adding the required volumes of compounds stock solutions (50 μL) to 200 μL of a DMSO/MeOH (1:1 v/v) mixture in safe-lock 1.5 mL PP tubes. Spiking solutions for calibration, validation standards and QCs at the appropriate concentrations were prepared by applying sequential dilutions in DMSO/MeOH (1:1 v/v) mixture starting from the dedicated WS in safe-lock 1.5 mL PP tubes and thoroughly mixed. […]

Structure (SMILES) | % from t0 ([2]; 4°C, level H (QC 1500 ng/mL)) | % from t0 ([2]; 4°C, level L (QC 2 ng/mL)) | % from t0 ([2]; 4°C, level M (QC 150 ng/mL)) | % from t0 ([2]; RT, level H (QC 1500 ng/mL)) | % from t0 ([2]; RT, level L (QC 2 ng/mL)) | % from t0 ([2]; RT, level M (QC 150 ng/mL)) | % from freshly processed samples (n=2) ([3]; 0.5 ng/mL) | % from freshly processed samples (n=2) ([3]; 1 ng/mL) | % from freshly prepared samples ([3]; 2 ng/mL) | % from freshly processed samples (n=2) ([3]; 2 ng/mL) | % from freshly processed samples (n=2) ([3]; 50 ng/mL) | % from freshly prepared samples ([3]; 150 ng/mL) | % from freshly processed samples (n=2) ([3]; 500 ng/mL) | % from freshly processed samples (n=2) ([3]; 1000 ng/mL) | % from freshly prepared samples ([3]; 1500 ng/mL) | % from freshly processed samples (n=2) ([3]; 2000 ng/mL) | anti-TB activity in vitro (active / inactive) [4] | % from t0 ([5]; 1 h, 10 ng/mL) | % from t0 ([5]; 1 h, 20 ng/mL) | % from t0 ([5]; 1 h, 50 ng/mL) | further results
O=C(C1CCCCC1)N1CCN(c2nc(=O)c3cc(C(F)(F)F)cc([N+](=O)[O-])c3s2)CC1 [Met oxo] | 4% | -3% | 5% | 25% | 6% | 29% | -11% | -12% | -6% | -6% | -10% | -8% | -8% | -3% | -5% | -3% | active | 1% | 1% | -1% | detection in vivo in plasma [1]: not detected; % from t0 ([5]; 1 h, 100 ng/mL): -1%; % from t0 ([5]; 1 h, 200 ng/mL): 0%; % from t0 ([5]; 1 h, 500 ng/mL): -5%; % from t0 ([5]; 2 h, 10 ng/mL): -3%; % from t0 ([5]; 2 h, 20 ng/mL): -4%; % from t0 ([5]; 2 h, 50 ng/mL): -8%; % from t0 ([5]; 2 h, 100 ng/mL): -3%; % from t0 ([5]; 2 h, 200 ng/mL): 1%; % from t0 ([5]; 2 h, 500 ng/mL): -5%; % from t0 ([5]; 4 h, 10 ng/mL): -1%; % from t0 ([5]; 4 h, 20 ng/mL): 0%; % from t0 ([5]; 4 h, 50 ng/mL): -6%; % from t0 ([5]; 4 h, 100 ng/mL): -4%; % from t0 ([5]; 4 h, 200 ng/mL): 1%; % from t0 ([5]; 4 h, 500 ng/mL): -8%
O=c1nc(N2CCN(CC3CCCC(O)C3)CC2)sc2c([N+](=O)[O-])cc(C(F)(F)F)cc12 (centres unmarked) [Met 3-OH] | -2% | -14% | -9% | -14% | -59% | -36% | -14% | -13% | -7% | -10% | -8% | -5% | -6% | -1% | -4% | -2% | active | 6% | 8% | 12% | % from freshly processed samples (n=2) ([3]; 0.2 ng/mL): 3%; % from t0 ([5]; 1 h, 100 ng/mL): 5%; % from t0 ([5]; 1 h, 200 ng/mL): 5%; % from t0 ([5]; 1 h, 500 ng/mL): 8%; % from t0 ([5]; 2 h, 10 ng/mL): 7%; % from t0 ([5]; 2 h, 20 ng/mL): 7%; % from t0 ([5]; 2 h, 50 ng/mL): 12%; % from t0 ([5]; 2 h, 100 ng/mL): 4%; % from t0 ([5]; 2 h, 200 ng/mL): 1%; % from t0 ([5]; 2 h, 500 ng/mL): 9%; % from t0 ([5]; 4 h, 10 ng/mL): 4%; % from t0 ([5]; 4 h, 20 ng/mL): 12%; % from t0 ([5]; 4 h, 50 ng/mL): 15%; % from t0 ([5]; 4 h, 100 ng/mL): 4%; % from t0 ([5]; 4 h, 200 ng/mL): 6%; % from t0 ([5]; 4 h, 500 ng/mL): 1%
Nc1cc(C(F)(F)F)cc2c(=O)nc(N3CCN(CC4CCCCC4)CC3)sc12 [Met amino] | – | – | – | – | – | – | – | – | – | – | – | – | – | – | – | – | inactive | – | – | – | time spiked plasma samples stability has been verified [6]: 1 month; time working solutions are stable [7]: ≥ 3 months; anti-TB activity in vitro (active / inactive) ([4]; listed as amino metabolite): devoid of anti-TB activity
O=c1nc(N2CCN(CC3(O)CCCCC3)CC2)sc2c([N+](=O)[O-])cc(C(F)(F)F)cc12 [Met 1-OH] | -2% | -12% | -9% | -12% | -55% | -33% | -15% | -9% | -4% | -4% | -1% | -3% | -1% | 0% | -2% | -1% | active | 4% | 3% | -1% | plasma levels in volunteers ([1]; in vivo): below 0.5 ng/mL; % from t0 ([5]; 1 h, 100 ng/mL): 2%; % from t0 ([5]; 1 h, 200 ng/mL): -1%; % from t0 ([5]; 1 h, 500 ng/mL): -4%; % from t0 ([5]; 2 h, 10 ng/mL): 1%; % from t0 ([5]; 2 h, 20 ng/mL): -2%; % from t0 ([5]; 2 h, 50 ng/mL): -4%; % from t0 ([5]; 2 h, 100 ng/mL): 0%; % from t0 ([5]; 2 h, 200 ng/mL): -3%; % from t0 ([5]; 2 h, 500 ng/mL): -6%; % from t0 ([5]; 4 h, 10 ng/mL): -1%; % from t0 ([5]; 4 h, 20 ng/mL): 0%; % from t0 ([5]; 4 h, 50 ng/mL): -9%; % from t0 ([5]; 4 h, 100 ng/mL): -2%; % from t0 ([5]; 4 h, 200 ng/mL): -4%; % from t0 ([5]; 4 h, 500 ng/mL): -11%
O=C1CCCC(CN2CCN(c3nc(=O)c4cc(C(F)(F)F)cc([N+](=O)[O-])c4s3)CC2)C1 (centres unmarked) [Met 3-oxo] | -2% | -14% | -9% | -10% | -58% | -37% | -14% | -2% | -4% | -10% | -6% | -4% | -4% | 0% | -4% | -1% | active | -1% | -6% | -22% | % from freshly processed samples (n=2) ([3]; 0.2 ng/mL): 6%; % from t0 ([5]; 1 h, 100 ng/mL): 0%; % from t0 ([5]; 1 h, 200 ng/mL): -9%; % from t0 ([5]; 1 h, 500 ng/mL): -22%; % from t0 ([5]; 2 h, 10 ng/mL): -5%; % from t0 ([5]; 2 h, 20 ng/mL): -9%; % from t0 ([5]; 2 h, 50 ng/mL): -32%; % from t0 ([5]; 2 h, 100 ng/mL): -5%; % from t0 ([5]; 2 h, 200 ng/mL): -11%; % from t0 ([5]; 2 h, 500 ng/mL): -31%; concentration deviation in whole blood ([5]; 4 h): exceeded the accepted -15% limit; % from t0 ([5]; 4 h, 10 ng/mL): -9%; % from t0 ([5]; 4 h, 20 ng/mL): -15%; % from t0 ([5]; 4 h, 50 ng/mL): -51%; % from t0 ([5]; 4 h, 100 ng/mL): -10%; % from t0 ([5]; 4 h, 200 ng/mL): -18%; % from t0 ([5]; 4 h, 500 ng/mL): -50%
O=c1nc(N2CCN(CC3CCCCC3O)CC2)sc2c([N+](=O)[O-])cc(C(F)(F)F)cc12 (centres unmarked) [Met 2-OH] | -4% | -16% | -10% | -18% | -61% | -39% | -16% | -6% | -8% | -6% | -4% | -4% | -3% | 0% | -4% | -2% | active | 1% | 1% | -10% | detection in vivo in plasma [1]: not detected; % from t0 ([5]; 1 h, 100 ng/mL): 2%; % from t0 ([5]; 1 h, 200 ng/mL): -2%; % from t0 ([5]; 1 h, 500 ng/mL): -9%; % from t0 ([5]; 2 h, 10 ng/mL): -1%; % from t0 ([5]; 2 h, 20 ng/mL): -1%; % from t0 ([5]; 2 h, 50 ng/mL): -17%; % from t0 ([5]; 2 h, 100 ng/mL): -2%; % from t0 ([5]; 2 h, 200 ng/mL): -5%; % from t0 ([5]; 2 h, 500 ng/mL): -15%; % from t0 ([5]; 4 h, 10 ng/mL): -3%; % from t0 ([5]; 4 h, 20 ng/mL): -2%; % from t0 ([5]; 4 h, 50 ng/mL): -30%; % from t0 ([5]; 4 h, 100 ng/mL): -3%; % from t0 ([5]; 4 h, 200 ng/mL): -6%; % from t0 ([5]; 4 h, 500 ng/mL): -26%
